# Measurements taken from patent US12410064B2, “Preparation of soluble compounds” (EXCITON PHARMA CORP., priority 2019, dated 2025).
# Several values for one entry are separate records, joined by “and”; a condition that tells them apart may be missing. Identical values can stand only once.
# Experiments:
# [1] = tested on: Staphylococcus aureus biofilms; assay: S. aureus antibiofilm assay (log-reduction vs no treatment control); format: cell-based
# Experimental: Briefly, S. aureus biofilms were grown on sterile gauze at 37° C. for 72 hours (gauze was re-inoculated with S. aureus at 24 hours and 48 hours). After incubation, the gauze was rinsed with sterile water and placed onto Mueller Hinton agar (MHA) plates. The compound was dissolved in aqueous (RO water) solution at a concentration of 0.4 mg Ag/cm^2 or 10 mg Ag per 5×5 cm testing and placed on top of the gauze. The plates were incubated for 6 hours at 37° C. The remaining solution containing metal complexes was removed from the biofilm and the biofilm/gauze was neutralized in 10 mL of sodium thioglycolate. The bacteria were agitated to remove them from the gauze and the resulting bacterial suspensions were diluted and spread onto MHA plates which were incubated for 18-24 hours at 37° C. and the resulting viable bacterial colonies were enumerated. The log-reduction of S. aureus was calculated relative to the reduction achieved in the “no treatment” negative control samples. Results represent the average of triplicate data. The assay was repeated upon the aged solid state at a shelf life of 5 months (FIGS. 4A-B).
# [2] = Acid-base titration curve (equivalence points); format: physicochemical; conditions: FIG. 1, inflection points of the curve; listed as JN300118-1
# Text: In the various embodiments, sufficient concentrations of the acid or base to transform the first oxidized metal complex into the desired second oxidized metal complex may be determined using acid-base titration. As used herein, the term “acid-base titration” refers to a method of quantitative analysis for determining the concentration of an acid or base by exactly neutralizing it with a standard solution of base or acid having known concentration. A pH indicator may be used to monitor the progress of the acid-base reaction. An acid-base titration curve may be plotted on a graph to show the changes in the pH upon addition of acid or base. As shown for example in FIG. 1, the curve falls near equivalence points (inflection points of the curve). The quantity of acid or base required to reach each equivalence point (e.g., FIG. 1, pH 11.3, 5.7) may be identified from the graph.
# At each equivalence point or corresponding pH, the first oxidized metal complex may be transformed into a different second oxidized metal complex. […]
# [3] = Solid state stability under ambient conditions, analysed by UV-Vis spectroscopy; format: physicochemical; conditions: room temperature, ambient air and light, five months
# Experimental: Stability evaluation of each compound in its solid state stored under ambient conditions was performed.
# [4] = S. aureus biofilm on gauze, 0.4 mg Ag/cm^2 in RO water, 6 hours at 37° C.
molecule,measurement,setting,value
"[Ag+].[Ag+].[Ag+].[Ag+].[Ag+].[O-][I+]([O-])([O-])([O-])([O-])[O-] [JN111018-3, Pentasilver periodate, reference compound]",antimicrobial activity,[1]; [4],"antimicrobial activity, yield"
K4-1H1-4Ag(IO5OH)2O [JN301118-1],equivalence point of acid-base titration curve,[2],11.3 pH and 5.7 pH
K5-3H0-2Ag(IO5OH)2 [JN150618-3],antimicrobial activity,[1]; [4],"bright red crystals, antimicrobial activity"
"Sodium diperiodatoargentate Na5Ag(IO5OH)216H2O [JN091118-2, reference compound]",antimicrobial activity,"[1]; S. aureus biofilm as Example 2, but semi-solid formulation (about 0.083 g) dissolved into RO water (1 mL), 0.4 mg Ag/cm^2","Atkinson, antimicrobial activity, yield"
diperiodatoargentate potassium salt [JN300518-2a],solid state stability,[3],"bright red crystals, solid state stability,"
